Data: BigSolDB 2.1

NC(=O)c1ccccc1
solubility (mole fraction)
Conditions | 283.15 K | 288.15 K | 293.15 K | 298.15 K | 303.15 K | 308.15 K | 313.15 K | 318.15 K | 323.15 K
in acetone | 0.0508 | 0.0589 | 0.0703 | 0.0817 | 0.0948 | 0.107 | 0.126 | 0.149 | 0.174
in acetonitrile | 0.0162 | 0.0196 | 0.0231 | 0.0278 | 0.0331 | 0.0385 | 0.046 | 0.0564 | 0.0712
in ethanol | 0.0412 | 0.0479 | 0.0555 | 0.0648 | 0.0758 | 0.087 | 0.101 | 0.12 | 0.143
in ethyl acetate | 0.0206 | 0.0234 | 0.0279 | 0.0334 | 0.0392 | 0.0455 | 0.0518 | 0.0613 | 0.0719
in isobutanol | 0.0268 | 0.0289 | 0.0342 | 0.0416 | 0.0489 | 0.0569 | 0.0665 | 0.0786 | 0.0945
in isopropanol | 0.0253 | 0.0314 | 0.0387 | 0.0473 | 0.0558 | 0.0642 | 0.0767 | 0.0893 | 0.111
in methanol | 0.0599 | 0.0699 | 0.0804 | 0.0917 | 0.105 | 0.121 | 0.141 | 0.164 | 0.189
in methyl acetate | 0.0236 | 0.0277 | 0.0334 | 0.0401 | 0.0476 | 0.0567 | 0.0662 | 0.0769 | 0.0927
in n-butanol | 0.0308 | 0.036 | 0.0425 | 0.0509 | 0.0591 | 0.0682 | 0.0787 | 0.0933 | 0.109
in n-butyl acetate | 0.0176 | 0.0192 | 0.0224 | 0.0264 | 0.0304 | 0.0349 | 0.0402 | 0.0451 | 0.0525
in n-propanol | 0.0329 | 0.0398 | 0.0479 | 0.0561 | 0.0653 | 0.0753 | 0.0891 | 0.103 | 0.126
in water | 0.00099 | 0.00128 | 0.0017 | 0.00212 | 0.00261 | 0.00306 | 0.00363 | 0.00438 | 0.00538
